# Organism: Rattus norvegicus
# Assay: DrugMatrix - Regimen: Daily Repeat
# Assay type: toxicity, organism-based, Sprague-Dawley
# Parameters: regimen Daily Repeat, gender Male, age 6-8 weeks
# Details: in vivo, po, route oral GAVAGE, vehicle 100 % SALINE; for ABSOLUTE BASOPHIL / ABSOLUTE EOSINOPHIL / ABSOLUTE LYMPHOCYTE / ABSOLUTE MONOCYTE / ABSOLUTE SEGMENTED NEUTROPHIL / BASOPHIL / EOSINOPHIL / ERYTHROCYTE COUNT / HEMATOCRIT / HEMOGLOBIN / LEUKOCYTE COUNT / LYMPHOCYTE / MEAN CORPUSCULAR HEMOGLOBIN / MEAN CORPUSCULAR HEMOGLOBIN CONCENTRATION / MEAN CORPUSCULAR VOLUME / MONOCYTE / NEUTROPHIL / NUCLEATED RED BLOOD CELLS / PLATELET COUNT: tissue Blood; for ALANINE AMINOTRANSFERASE / ALBUMIN / ALKALINE PHOSPHATASE / ASPARTATE AMINOTRANSFERASE / BLOOD UREA NITROGEN / CARBON DIOXIDE / CHLORIDE / CHOLESTEROL / CREATINE PHOSPHOKINASE / CREATININE / GLUCOSE / LACTATE DEHYDROGENASE / LIPASE / PHOSPHORUS / POTASSIUM / SODIUM / TOTAL BILIRUBIN / TOTAL PROTEIN / URIC ACID: tissue Plasma
# [1] = 0 mg/kg, 72 h, dose level Control, time 3 day
# [2] = 0 mg/kg, 120 h, dose level Control, time 5 day
# [3] = 46 mg/kg, 72 h, dose level Low, time 3 day
compound,measurement,setting,value
COc1ccc2cc(CC(=O)O)ccc2c1,ABSOLUTE BASOPHIL,[1],0 CELLS/uL
same,ABSOLUTE EOSINOPHIL,[1],26.83 CELLS/uL
same,ABSOLUTE LYMPHOCYTE,[1],12748.5 CELLS/uL
same,ABSOLUTE MONOCYTE,[1],140.5 CELLS/uL
same,ABSOLUTE SEGMENTED NEUTROPHIL,[1],1067.5 CELLS/uL
same,BASOPHIL,[1],0%
same,EOSINOPHIL,[1],0.17%
same,ERYTHROCYTE COUNT,[1],5.51 x10E6/uL
same,HEMATOCRIT,[1],34.75%
same,HEMOGLOBIN,[1],13.65 G/DL
same,LEUKOCYTE COUNT,[1],13.98 x10E3/uL
same,LYMPHOCYTE,[1],91.17%
same,MEAN CORPUSCULAR HEMOGLOBIN,[1],24.8 pg
same,MEAN CORPUSCULAR HEMOGLOBIN CONCENTRATION,[1],39.33 G/DL
same,MEAN CORPUSCULAR VOLUME,[1],63.03 fL
same,MONOCYTE,[1],1%
same,NEUTROPHIL,[1],7.67%
same,NUCLEATED RED BLOOD CELLS,[1],0 /100WBC
same,PLATELET COUNT,[1],1278.17 x10E3/uL
same,ALANINE AMINOTRANSFERASE,[1],52.17 u/L
same,ALBUMIN,[1],4.07 G/DL
same,ALKALINE PHOSPHATASE,[1],416.83 u/L
same,ASPARTATE AMINOTRANSFERASE,[1],109.67 u/L
same,BLOOD UREA NITROGEN,[1],16.83 mg/dL
same,CARBON DIOXIDE,[1],28 mmol/L
same,CHLORIDE,[1],100.83 MEQ/L
same,CHOLESTEROL,[1],69 mg/dL
same,CREATINE PHOSPHOKINASE,[1],1155.67 u/L
same,CREATININE,[1],0.32 mg/dL
same,GLUCOSE,[1],186.5 mg/dL
same,LACTATE DEHYDROGENASE,[1],345.67 u/L
same,LIPASE,[1],12.17 u/L
same,PHOSPHORUS,[1],12.45 mg/dL
same,POTASSIUM,[1],6.85 MEQ/L
same,SODIUM,[1],141.4 MEQ/L
same,TOTAL BILIRUBIN,[1],0.23 mg/dL
same,TOTAL PROTEIN,[1],5.63 G/DL
same,URIC ACID,[1],2.22 mg/dL
same,ABSOLUTE BASOPHIL,[2],0 CELLS/uL
same,ABSOLUTE EOSINOPHIL,[2],114.33 CELLS/uL
same,ABSOLUTE LYMPHOCYTE,[2],11655.33 CELLS/uL
same,ABSOLUTE MONOCYTE,[2],142 CELLS/uL
same,ABSOLUTE SEGMENTED NEUTROPHIL,[2],1055 CELLS/uL
same,BASOPHIL,[2],0%
same,EOSINOPHIL,[2],0.83%
same,ERYTHROCYTE COUNT,[2],5.68 x10E6/uL
same,HEMATOCRIT,[2],35.92%
same,HEMOGLOBIN,[2],14.13 G/DL
same,LEUKOCYTE COUNT,[2],12.97 x10E3/uL
same,LYMPHOCYTE,[2],90%
same,MEAN CORPUSCULAR HEMOGLOBIN,[2],24.93 pg
same,MEAN CORPUSCULAR HEMOGLOBIN CONCENTRATION,[2],39.37 G/DL
same,MEAN CORPUSCULAR VOLUME,[2],63.33 fL
same,MONOCYTE,[2],1.17%
same,NEUTROPHIL,[2],8%
same,NUCLEATED RED BLOOD CELLS,[2],0 /100WBC
same,PLATELET COUNT,[2],1234 x10E3/uL
same,ALANINE AMINOTRANSFERASE,[2],43.5 u/L
same,ALBUMIN,[2],4.23 G/DL
same,ALKALINE PHOSPHATASE,[2],331.5 u/L
same,ASPARTATE AMINOTRANSFERASE,[2],80.83 u/L
same,BLOOD UREA NITROGEN,[2],17.67 mg/dL
same,CARBON DIOXIDE,[2],31.83 mmol/L
same,CHLORIDE,[2],100.83 MEQ/L
same,CHOLESTEROL,[2],69.5 mg/dL
same,CREATINE PHOSPHOKINASE,[2],320 u/L
same,CREATININE,[2],0.26 mg/dL
same,GLUCOSE,[2],157.33 mg/dL
same,LACTATE DEHYDROGENASE,[2],364.67 u/L
same,LIPASE,[2],9.83 u/L
same,PHOSPHORUS,[2],11.05 mg/dL
same,POTASSIUM,[2],5.83 MEQ/L
same,SODIUM,[2],141.07 MEQ/L
same,TOTAL BILIRUBIN,[2],0.22 mg/dL
same,TOTAL PROTEIN,[2],5.92 G/DL
same,URIC ACID,[2],1.23 mg/dL
same,ABSOLUTE BASOPHIL,[3],0 CELLS/uL
same,ABSOLUTE EOSINOPHIL,[3],49.33 CELLS/uL
same,ABSOLUTE LYMPHOCYTE,[3],12249.33 CELLS/uL
same,ABSOLUTE MONOCYTE,[3],224.67 CELLS/uL
same,ABSOLUTE SEGMENTED NEUTROPHIL,[3],1176.67 CELLS/uL
same,BASOPHIL,[3],0%
same,EOSINOPHIL,[3],0.33%
same,ERYTHROCYTE COUNT,[3],5.54 x10E6/uL
same,HEMATOCRIT,[3],33.9%
same,HEMOGLOBIN,[3],13.13 G/DL
same,LEUKOCYTE COUNT,[3],13.7 x10E3/uL
same,LYMPHOCYTE,[3],89.67%
same,MEAN CORPUSCULAR HEMOGLOBIN,[3],23.73 pg
same,MEAN CORPUSCULAR HEMOGLOBIN CONCENTRATION,[3],38.77 G/DL
same,MEAN CORPUSCULAR VOLUME,[3],61.23 fL
same,MONOCYTE,[3],1.67%
same,NEUTROPHIL,[3],8.33%
same,NUCLEATED RED BLOOD CELLS,[3],0 /100WBC
same,PLATELET COUNT,[3],1182.67 x10E3/uL
same,ALANINE AMINOTRANSFERASE,[3],61.33 u/L
same,ALBUMIN,[3],4.13 G/DL
same,ALKALINE PHOSPHATASE,[3],328.67 u/L
same,ASPARTATE AMINOTRANSFERASE,[3],85.67 u/L
same,BLOOD UREA NITROGEN,[3],16 mg/dL
same,CARBON DIOXIDE,[3],34 mmol/L
same,CHLORIDE,[3],102.33 MEQ/L
same,CHOLESTEROL,[3],75.67 mg/dL
same,CREATINE PHOSPHOKINASE,[3],347.33 u/L
same,CREATININE,[3],0.4 mg/dL
same,GLUCOSE,[3],150.67 mg/dL
same,LACTATE DEHYDROGENASE,[3],245.33 u/L
same,LIPASE,[3],9 u/L
same,PHOSPHORUS,[3],11.63 mg/dL
same,POTASSIUM,[3],6.77 MEQ/L
same,SODIUM,[3],143.43 MEQ/L
same,TOTAL BILIRUBIN,[3],0.13 mg/dL
same,TOTAL PROTEIN,[3],5.33 G/DL
same,URIC ACID,[3],1.3 mg/dL

# Source: ChEMBL document CHEMBL3885881, “DrugMatrix”
